Data: patent US12454546B2, “Inotodiol ester derivative precursor drug” (CARBOEXPERT INC., priority 2020, dated 2025)
≈ marks a conversion by molar mass, not a printed value.

Key:
[1] = Solubility of inotodiol in organic solvents (Example 1, HPLC-UV-VIS of supernatant); assay type: physicochemical; details: 30 °C
Experimental: To measure the […] solubility of inotodiol, the following was performed.
First, 50 mg of an inotodiol sample was mixed with 1 ml of an organic solvent. Subsequently, the mixture was vortexed and placed in a water bath sonicator for 15 minutes. […]

physchem [2] = details: 30 °C, water, thermodynamic from solid
Experimental: (§1) To measure the solubility of inotodiol esters with respect to water, 5 mg of each sample was suspended in 1 mL of distilled water and treated in an ultrasonic bath for 30 minutes. The mixture was then treated in an ultrasonic bath (Power sonic 410) for 30 minutes. Then, the mixture was incubated at 30° C. for 3 hours. The supernatant obtained after centrifugation (20,000×g, 10 minutes) was filtered through a 0.45 μm membrane filter of [sequence]

physchem [3] = details: distilled water, 30 °C, thermodynamic from solid
Experimental: as §1

CC(C)=CC[C@@H](O)[C@@H](C)[C@H]1CC[C@@]2(C)C3=C(CC[C@]12C)[C@@]1(C)CC[C@H](O)C(C)(C)[C@@H]1CC3 [Inotodiol, (3S,5R,10S,13R,14R,17R)-17-[(2S,3R)-3-hydroxy-6-methylhept-5-en-2-yl]-4,4,10,13,14-pentamethyl-2,3,5,6,7,11,12,15,16,17-decahydro-1H-cyclopenta[a]phenanthren-3-ol]
Inotodiol concentration ([1]; solvent acetonitrile): 0.976 mg/mL | Inotodiol concentration ([1]; solvent dichloromethane): 24.675 mg/mL | Inotodiol concentration ([1]; solvent ethanol): 25.152 mg/mL | Inotodiol concentration ([1]; solvent ethyl acetate): 8.685 mg/mL | Inotodiol concentration ([1]; solvent hexane): 0.094 mg/mL | Inotodiol concentration ([1]; solvent methanol): 7.964 mg/mL | Inotodiol concentration ([1]; solvent t-butanol): 26.493 mg/mL | solubility at 3 h (physchem [2]): 31 ± 3.8 mg/mL (≈ 70 mM) | solubility at 3 h (physchem [3]): 0.0005 ± 0.00018 mg/mL (≈ 0.00113 mM)
